Results as given in the NIST ThermoML archive (doi:10.1021/je401118k).

Experiment: mn = molality of the nth substance listed, in mol/kg
Settings: for surface tension liquid-gas: Ring tensiometer; for electrical conductivity: 101 kPa, Liquid, Alternating current cell with electrodes

CC(=O)[O-].C[N+]1(CCC[Si](O[Si](C)(C)C)(O[Si](C)(C)C)O[Si](C)(C)C)CCCC1 + O
298.15 K
Settings	surface tension liquid-gas [mN/m]
m1 = 1e-06	70.5
m1 = 1e-05	58.2
m1 = 0.0001	47.1
m1 = 0.0002	42.4
m1 = 0.0004	36.9
m1 = 0.0006	32.1
m1 = 0.0008	29.7
m1 = 0.001	27.8
m1 = 0.002	23.5
m1 = 0.003	21.5
m1 = 0.004	20.2
m1 = 0.005	20
m1 = 0.006	20
m1 = 0.007	20
m1 = 0.008	20
m1 = 0.009	20

C[N+]1(CCC[Si](O[Si](C)(C)C)(O[Si](C)(C)C)O[Si](C)(C)C)CCCC1.O=[N+]([O-])[O-] + O
Settings	electrical conductivity, 288.15 K [S/m]	electrical conductivity, 293.15 K [S/m]	electrical conductivity, 298.15 K [S/m]	electrical conductivity, 303.15 K [S/m]	electrical conductivity, 308.15 K [S/m]	surface tension liquid-gas, 298.15 K [mN/m]
m1 = 1e-06	–	–	–	–	–	71.3
m1 = 1e-05	–	–	–	–	–	67.8
m1 = 0.0001	–	–	–	–	–	54.3
m1 = 0.0006	–	–	–	–	–	42
m1 = 0.0008	0.00614	0.00666	0.00734	0.00801	0.00864	–
m1 = 0.0009	0.00682	0.00744	0.00818	0.00894	0.00984	–
m1 = 0.001	0.00733	0.0081	0.00888	0.00967	0.01058	37.4
m1 = 0.002	0.0143	0.01556	0.01717	0.01881	0.0212	33.3
m1 = 0.003	0.0209	0.0231	0.0255	0.0279	0.0302	30.3
m1 = 0.004	0.0264	0.0291	0.0321	0.0354	0.0388	27.6
m1 = 0.005	0.0282	0.031	0.0348	0.0392	0.0438	26.1
m1 = 0.006	0.03	0.0329	0.0367	0.0414	0.0466	25.1
m1 = 0.007	0.0312	0.0343	0.0382	0.043	0.0486	24
m1 = 0.008	0.0324	0.0354	0.0396	0.0447	0.0502	23.3
m1 = 0.009	0.0335	0.0369	0.041	0.0464	0.0525	23
m1 = 0.01	–	–	–	–	–	22.4
m1 = 0.015	–	–	–	–	–	21.4
m1 = 0.02	–	–	–	–	–	21.2
m1 = 0.025	–	–	–	–	–	21.3
m1 = 0.03	–	–	–	–	–	21.2
